Counter-ions that a name gives are not always drawn.
Assay: in vitro
Conditions: rat, gh3-tre-luc cells

Compound	CC50 at 24 h (AC50 (uM) modified / 1000)	other results
CC1(C)C(=O)N(Br)C(=O)N1Cl [3-Bromo-1-chloro-5,5-dimethylhydantoin]	> 90 µM	
OCCCBr [3-Bromo-1-propanol]		CC50 at 24 h (AC50 (uM) modified / 1000, Tox21_110001=Tox21_400042, viability, 1 nM T3 present, 24 h): > 90 µM
OCC(CBr)(CBr)CBr [3-Bromo-2,2-bis(bromomethyl)propanol]	> 90 µM	
O=Cc1ccc(F)c(Br)c1 [3-Bromo-4-fluorobenzaldehyde]	> 90 µM	
O=Cc1cccc(Br)c1 [3-Bromobenzaldehyde]	> 90 µM	
Brc1cccc(-c2ccccc2)c1 [3-Bromobiphenyl]		CC50 at 24 h (AC50 (uM) modified / 1000, Tox21_110001=Tox21_200121, viability, 1 nM T3 present, 24 h): > 90 µM
Cc1cccc(Br)c1 [3-Bromotoluene]	> 90 µM	
CC1=CCC2C(C1)C2(C)C (stereo not shown) [3-Carene]	> 90 µM	
OCC(O)CCl (stereo not shown) [3-Chloro-1,2-propanediol]		CC50 at 24 h (AC50 (uM) modified / 1000, Tox21_110001=Tox21_202262, viability, 1 nM T3 present, 24 h): > 90 µM
CC(C)(CCl)C(=O)Cl [3-Chloro-2,2-dimethylpropanoyl chloride]	> 90 µM	
Cc1c(N)cccc1Cl [3-Chloro-2-methylaniline]	> 90 µM	
C=C(C)CCl [3-Chloro-2-methylpropene]		CC50 at 24 h (AC50 (uM) modified / 1000, Tox21_110001=Tox21_201640, viability, 1 nM T3 present, 24 h): > 90 µM; CC50 at 24 h (AC50 (uM) modified / 1000, Tox21_110001=Tox21_303609, viability, 1 nM T3 present, 24 h): > 9 µM
O=C1OC(O)C(C(Cl)Cl)=C1Cl (stereo not shown) [3-Chloro-4-(dichloromethyl)-5-hydroxy-2(5H)-furanone]	35 µM	
O=C(Cl)c1ccc(F)c(Cl)c1 [3-Chloro-4-fluorobenzoyl chloride]	> 90 µM	
Cc1ccc(N)cc1Cl [3-Chloro-4-methylaniline]	> 90 µM	
Nc1cccc(Cl)c1 [3-Chloroaniline]	> 90 µM	
O=C(O)c1cccc(Cl)c1 [3-Chlorobenzoic acid]		CC50 at 24 h (AC50 (uM) modified / 1000, Tox21_110001=Tox21_200325, viability, 1 nM T3 present, 24 h): > 90 µM
FC(F)(F)c1cccc(Cl)c1 [3-Chlorobenzotrifluoride]	> 90 µM	
Oc1cccc(Cl)c1 [3-Chlorophenol]	> 90 µM	
O=C(O)CCCl [3-Chloropropanoic acid]	> 90 µM	
N#CCCCl [3-Chloropropionitrile]	> 90 µM	
O=CC1CC=CCC1 (stereo not shown) [3-Cyclohexene-1-carboxaldehyde]	> 90 µM	
OCCCC1CCCCC1 [3-Cyclohexylpropan-1-ol]	> 90 µM	

Compound	CC50 at 24 h (AC50 (uM) modified / 1000)	other results
CCN(CC)c1cccc(O)c1 [3-Diethylaminophenol]	> 90 µM	
CN(C)c1cccc(O)c1 [3-Dimethylaminophenol]	> 90 µM	
CN(C)CCC#N [3-Dimethylaminopropionitrile]	> 90 µM	
CCOc1cc(C=O)ccc1O [3-Ethoxy-4-hydroxybenzaldehyde]	> 50 µM	
CCOc1cccc(N)c1 [3-Ethoxyaniline]	> 90 µM	
CCc1nccnc1C [3-Ethyl-2-methylpyrazine]	> 90 µM	
CCNc1cc(O)ccc1C [3-Ethylamino-4-methylphenol]	> 90 µM	
CCc1cccc(O)c1 [3-Ethylphenol]	> 90 µM	
CCc1cccc(C)c1 [3-Ethyltoluene]	> 90 µM	
CCCC(=O)CC [3-Hexanone]	> 90 µM	
CC(C)(CO)COC(=O)C(C)(C)CO [3-Hydroxy-2,2-dimethylpropyl 3-hydroxy-2,2-dimethylpropanoate]	> 90 µM	
CC(CO)(CO)C(=O)O [3-Hydroxy-2-(hydroxymethyl)-2-methylpropanoic acid]	> 90 µM	
O=C(O)c1cc2ccccc2cc1O [3-Hydroxy-2-naphthoic acid]	> 90 µM	
COc1ccccc1NC(=O)c1cc2ccccc2cc1O [3-Hydroxy-2-naphthoic o-anisidide]	> 90 µM	
CCOc1ccc(NC(=O)CC(C)O)cc1 (stereo not shown) [3-Hydroxy-4-butyrophenetidide]	> 90 µM	
COc1ccc(C=O)cc1O [3-Hydroxy-4-methoxy-benzaldehyde]		CC50 at 24 h (AC50 (uM) modified / 1000, Tox21_110001=Tox21_202858, viability, 1 nM T3 present, 24 h): > 90 µM
O=C(Nc1cccc([N+](=O)[O-])c1)c1cc2ccccc2cc1O [3-Hydroxy-N-(3-nitrophenyl)naphthalene-2-carboxamide]	1.77 µM	
Oc1cccc(Nc2ccccc2)c1 [3-Hydroxy-N-phenylaniline]	> 100 µM	
O=C(O)c1cccc(O)c1 [3-Hydroxybenzoic acid]	> 90 µM	
O=C(c1ccccc1)c1cccc(O)c1 [3-Hydroxybenzophenone]	> 90 µM	
Oc1ccc2c(c1)-c1ccccc1C2 [3-Hydroxyfluorene]	> 90 µM	
O=c1[nH][nH]c2ccccc12 [3-Indazolinone]	> 90 µM	
N=C(N)NCc1cccc(I)c1 [3-Iodobenzylguanidine hemisulfate]	> 50 µM	

Compound	CC50 at 24 h (AC50 (uM) modified / 1000)	other results
CC(C)c1cccc(O)c1 [3-Isopropylphenol]	> 100 µM	
O=C(O)CCS [3-Mercaptopropanoic acid]	> 90 µM	
COC(=O)CCS [3-Mercaptopropionic acid methyl ester]	> 90 µM	
CO[Si](CCCS)(OC)OC [3-Mercaptopropyltrimethoxysilane]	> 90 µM	
COC(C)(C)CCO [3-Methoxy-3-methylbutan-1-ol]	> 90 µM	
COc1cc(N)ccc1C [3-Methoxy-4-methylaniline]	> 90 µM	
COc1cc(C)cc(O)c1 [3-Methoxy-5-methylphenol]	> 90 µM	
COc1cccc(N)c1 [3-Methoxyaniline]	> 90 µM	
COc1cccc(C=O)c1 [3-Methoxybenzaldehyde]		CC50 at 24 h (AC50 (uM) modified / 1000, Tox21_110001=Tox21_302136, viability, 1 nM T3 present, 24 h): > 90 µM
COC(C)CCO (stereo not shown) [3-Methoxybutan-1-ol]	> 90 µM	
COc1cccc(O)c1O [3-Methoxycatechol]	70.4 µM	
COCCC#N [3-Methoxypropionitrile]	> 90 µM	
COCCCN [3-Methoxypropylamine]	> 90 µM	
CC1CCC(=O)C1=O (stereo not shown) [3-Methyl-1,2-cyclopentanedione]	> 100 µM	
C#CC(C)(O)CC (stereo not shown) [3-Methyl-1-pentyn-3-ol]		CC50 at 24 h (AC50 (uM) modified / 1000, Tox21_110001=Tox21_112294, viability, 1 nM T3 present, 24 h): > 50 µM
Cc1cc(N)n(-c2ccccc2)n1 [3-Methyl-1-phenyl-1H-pyrazol-5-amine]	> 90 µM	
CC(=O)C(C)C [3-Methyl-2-butanone]	> 100 µM	
CC(C)=CCO [3-Methyl-2-buten-1-ol]	> 90 µM	
CC(C)=CCOC(=O)c1ccccc1 [3-Methyl-2-butenyl benzoate]	> 90 µM	
CC1=CC(=O)CCC1 [3-Methyl-2-cyclohexen-1-one]	> 90 µM	
Cc1cccc(C(=O)O)c1[N+](=O)[O-] [3-Methyl-2-nitrobenzoic acid]	> 90 µM	
CCC(C)C(C)=O (stereo not shown) [3-Methyl-2-pentanone]	> 90 µM	
CC1COc2ccccc2N1 (stereo not shown) [3-Methyl-3,4-dihydro-2H-1,4-benzoxazine]	> 90 µM	

Compound	CC50 at 24 h (AC50 (uM) modified / 1000)	other results
CC=C(C)C(C)=O [3-Methyl-3-penten-2-one]	> 90 µM	
Cc1cc(C(=O)O)ccc1[N+](=O)[O-] [3-Methyl-4-nitrobenzoic acid]	> 90 µM	
CC(CCO)CCc1ccccc1 (stereo not shown) [3-Methyl-5-phenylpentan-1-ol]	> 90 µM	
Cc1cccc(Nc2ccccc2)c1 [3-Methyl-N-phenylaniline]	> 90 µM	
Cc1cccc(N)c1 [3-Methylaniline hydrochloride]	> 90 µM	
Cc1cccc(C(=O)O)c1 [3-Methylbenzoic acid]	> 90 µM	
Cc1cccc(C#N)c1 [3-Methylbenzonitrile]		CC50 at 24 h (AC50 (uM) modified / 1000, Tox21_110001=Tox21_200853, viability, 1 nM T3 present, 24 h): > 90 µM
CC(C)=CC=O [3-Methylbut-2-enal]	> 100 µM	
CC(C)CC=O [3-Methylbutanal]	> 90 µM	
CC(C)CCOC(=O)CC(C)C [3-Methylbutyl 3-methylbutanoate]	> 90 µM	
CC(=O)OCCC(C)C [3-Methylbutyl acetate]	> 90 µM	
CC(C)CCOC(=O)/C=C/c1ccccc1 [3-Methylbutyl cinnamate]	> 90 µM	
CC(C)CCON=O [3-Methylbutyl nitrite]		CC50 at 24 h (AC50 (uM) modified / 1000, Tox21_110001=Tox21_111074, viability, 1 nM T3 present, 24 h): > 50 µM; CC50 at 24 h (AC50 (uM) modified / 1000, Tox21_110001=Tox21_200983, viability, 1 nM T3 present, 24 h): > 90 µM
Cc1ccc2cc3c(ccc4ccccc43)c3c2c1CC3 [3-Methylcholanthrene]		CC50 at 24 h (AC50 (uM) modified / 1000, Tox21_110001=Tox21_202592, viability, 1 nM T3 present, 24 h): > 50 µM
CC1CCCC(=O)C1=O (stereo not shown) [3-Methylcyclohexane-1,2-dione]	> 90 µM	
CCCC(C)CC (stereo not shown) [3-Methylhexane]	> 90 µM	
Cc1c[nH]c2ccccc12 [3-Methylindole]	> 50 µM	
CC1CCCNC1 (stereo not shown) [3-Methylpiperidine]	> 90 µM	
Cc1cccnc1 [3-Methylpyridine]	> 90 µM	
N=c1c[n+](N2CCOCC2)[n-]o1 [3-Morpholinosydnonimine hydrochloride]	> 50 µM	
CC(=O)c1cccc([N+](=O)[O-])c1 [3-Nitroacetophenone]	> 90 µM	
Nc1cccc([N+](=O)[O-])c1 [3-Nitroaniline]	> 90 µM	
O=Cc1cccc([N+](=O)[O-])c1 [3-Nitrobenzaldehyde]	> 90 µM	

Source: publication PMC6792352, “Limited Chemical Structural Diversity Found to Modulate Thyroid Hormone Receptor in the Tox21 Chemical Library” (Environmental Health Perspectives, 2019)
